These results are taken from patent US20260053834A1, “COVALENT MODIFIERS OF AKT1 AND USES THEREOF” (Terremoto Biosciences, Inc., priority 2023, published 2026).

Test [1] relates to LAPC4 prostate cancer cells, which express the AKT1 E17K allele. Nature of the test: Antiproliferative effects in LAPC4 cells (CellTiter Glo, 72 h). Type of test: cell-based. The following applies: Homo sapiens, LAPC4, 72 h, read-out: LAPC4 proliferation IC50: GeoMean IC50. An outline of the steps:
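IC50 values come from Hill-equation fitting of luminescence (cellular ATP) after 72 h compound exposure. Treated wells held 1,000 cells each, with compound delivered as DMSO dilutions. Culture medium was IMDM plus 12% FBS.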

The target in test [2] is T1, AKT1 WT (Homo sapiens, UniProt P31749).
T1 construct: expressed in transfected cells; host or cells: HEK293
Nature of the test: Live cell target engagement by NanoBRET competitive probe displacement, AKT1 WT. As to conditions: transfected HEK293 cells, 2 h at 37° C., read-out: AKT1 WT IC50: GeoMean IC50. Type of test: binding.

In test [3] the target is T2, AKT2 (Homo sapiens, UniProt P31751).
T2 construct: expressed in transfected cells; host or cells: HEK293
Nature of the test: Live cell target engagement by NanoBRET competitive probe displacement, AKT2. Type of test: binding. The following applies: transfected HEK293 cells, 2 h at 37° C., read-out: AKT2 IC50: GeoMean IC50.

The target in test [4] is T3, AKT1 E17K (Homo sapiens, UniProt P31749, E17K).
T3 construct: expressed in transfected cells; host or cells: HEK293
Nature of the test: Live cell target engagement by NanoBRET competitive probe displacement, AKT1 E17K. It is filed as binding. As to conditions: transfected HEK293 cells, 2 h at 37° C., read-out: AKT1 E17K IC50: GeoMean IC50.

T3 sequence (P31749 whole entry E17K): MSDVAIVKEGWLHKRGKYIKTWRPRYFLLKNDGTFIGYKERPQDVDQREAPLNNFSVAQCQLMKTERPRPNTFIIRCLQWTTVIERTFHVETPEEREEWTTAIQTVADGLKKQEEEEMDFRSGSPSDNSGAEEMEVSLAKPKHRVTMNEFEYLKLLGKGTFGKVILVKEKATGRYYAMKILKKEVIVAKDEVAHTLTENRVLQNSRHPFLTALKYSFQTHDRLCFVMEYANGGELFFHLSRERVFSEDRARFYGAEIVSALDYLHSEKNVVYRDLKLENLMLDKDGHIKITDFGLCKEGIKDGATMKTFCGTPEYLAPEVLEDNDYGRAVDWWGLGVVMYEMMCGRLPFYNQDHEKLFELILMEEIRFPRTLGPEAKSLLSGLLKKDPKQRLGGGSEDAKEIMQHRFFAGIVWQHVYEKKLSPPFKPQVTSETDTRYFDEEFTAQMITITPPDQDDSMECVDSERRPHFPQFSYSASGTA
T1 sequence (P31749 whole entry): as the sequence (P31749 whole entry E17K) above, with K17E counted along it
T2 sequence (P31751 whole entry): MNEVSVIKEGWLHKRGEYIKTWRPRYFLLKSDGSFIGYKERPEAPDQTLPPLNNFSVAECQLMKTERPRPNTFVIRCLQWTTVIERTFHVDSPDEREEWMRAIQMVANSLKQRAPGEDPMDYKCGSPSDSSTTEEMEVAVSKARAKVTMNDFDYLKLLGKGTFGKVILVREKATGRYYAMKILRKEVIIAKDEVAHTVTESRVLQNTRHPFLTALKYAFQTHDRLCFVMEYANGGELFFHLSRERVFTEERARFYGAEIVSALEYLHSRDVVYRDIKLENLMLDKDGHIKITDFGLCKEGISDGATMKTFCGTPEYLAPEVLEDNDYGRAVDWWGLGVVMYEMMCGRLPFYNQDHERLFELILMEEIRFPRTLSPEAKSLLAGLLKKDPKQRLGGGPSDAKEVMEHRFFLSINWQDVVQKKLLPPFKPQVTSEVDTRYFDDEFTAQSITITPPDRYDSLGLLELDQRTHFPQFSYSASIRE

As for `Nc1ccn(-c2ccc3nc(-c4cccnc4N)n(-c4ccc5c(c4)CC[C@@H]5NC(=O)c4ccc(O)c(C=O)c4)c3n2)n1` [Example 134, N-[(1S)-5-[5-(3-aminopyrazol-1-yl)-2-(2-aminopyridin-3-yl)imidazo[4,5-b]pyridin-3-yl]-2,3-dihydro-1H-inden-1-yl]-3-formyl-4-hydroxybenzamide], the IC50 in test [1] fell in the range of 100 to 2000 nM; in test [2] it was 100 to 2000 nM; in test [3], 100 to 2000 nM; in test [4], 10 to 100 nM.

For `Nc1ncccc1-c1nc2ccc(-n3ccc(F)n3)nc2n1-c1ccc2c(c1)CC[C@@H]2NC(=O)c1cc(C=O)c(O)cc1F` [Example 135, N-[(1S)-5-[2-(2-aminopyridin-3-yl)-5-(3-fluoropyrazol-1-yl)imidazo[4,5-b]pyridin-3-yl]-2,3-dihydro-1H-inden-1-yl]-2-fluoro-5-formyl-4-hydroxybenzamide], the IC50 is 10 to 100 nM in test [1], 10 to 100 nM in test [2], 100 to 2000 nM in test [3] and 10 to 100 nM in test [4].

For the molecule `Nc1ncccc1-c1nc2ccc(Cl)nc2n1-c1ccc2c(c1)CC[C@@H]2NC(=O)c1ccc(O)c(C=O)c1` [Example 136, N-[(1S)-5-[2-(2-aminopyridin-3-yl)-5-chloroimidazo[4,5-b]pyridin-3-yl]-2,3-dihydro-1H-inden-1-yl]-3-formyl-4-hydroxybenzamide], the IC50 in test [1] is 100 to 2000 nM; in test [2], 100 to 2000 nM; in test [3], at least 2000 nM; in test [4], 10 to 100 nM.

In the case of `Nc1ncccc1-c1nc2ccc(-c3ccccc3)nc2n1-c1ccc2c(c1)CC[C@@H]2NC(=O)c1cc(C=O)c2[nH]nnc2c1` [Example 137, N-[(1S)-5-[2-(2-aminopyridin-3-yl)-5-phenylimidazo[4,5-b]pyridin-3-yl]-2,3-dihydro-1H-inden-1-yl]-7-formyl-1H-1,2,3-benzotriazole-5-carboxamide], the IC50 in test [1] was 10 to 100 nM; in test [2] it was below 10 nM; in test [3], below 10 nM; in test [4] it was below 10 nM.

With `Nc1ncccc1-c1nc2ccc(-n3cc(CO)cn3)nc2n1-c1ccc2c(c1)CC[C@@H]2NC(=O)c1cc(C=O)c(O)cc1F` [Example 138, (S)—N-(5-(2-(2-aminopyridin-3-yl)-5-(4-(hydroxymethyl)-1H-pyrazol-1-yl)-3H-imidazo[4,5-b]pyridin-3-yl)-2,3-dihydro-1H-inden-1-yl)-2-fluoro-5-formyl-4-hydroxybenzamide], the IC50 was in the range of 10 to 100 nM in test [1], 100 to 2000 nM in test [2], 100 to 2000 nM in test [3] and 10 to 100 nM in test [4].

For the molecule `Nc1ncccc1-c1nc2ccc(-c3nccs3)nc2n1-c1ccc2c(c1)CC[C@@H]2NC(=O)c1cc(C=O)c(O)c(F)c1F` [Example 140, (S)—N-(5-(2-(2-aminopyridin-3-yl)-5-(thiazol-2-yl)-3H-imidazo[4,5-b]pyridin-3-yl)-2,3-dihydro-1H-inden-1-yl)-2,3-difluoro-5-formyl-4-hydroxybenzamide], the IC50 in test [1] was below 10 nM; in test [2], below 10 nM; in test [3], 10 to 100 nM; in test [4] it was below 10 nM.

Turning to `Cn1ccnc1Nc1ccc(C(=O)N[C@H]2CCc3cc(-n4c(-c5cccnc5N)nc5ccc(-n6cccn6)nc54)ccc32)cc1C=O` [Example 141, (S)—N-(5-(2-(2-aminopyridin-3-yl)-5-(1H-pyrazol-1-yl)-3H-imidazo[4,5-b]pyridin-3-yl)-2,3-dihydro-1H-inden-1-yl)-3-formyl-4-((1-methyl-1H-imidazol-2-yl)amino)benzamide], the IC50 lay in the range of 100 to 2000 nM in test [1], 10 to 100 nM in test [2], 100 to 2000 nM in test [3] and 100 to 2000 nM in test [4].

Take `Nc1ncccc1-c1nc2ccc(-n3cccn3)nc2n1-c1ccc2c(c1)CC[C@@H]2NC(=O)c1cccc(C=O)c1` [Example 142, (S)—N-(5-(2-(2-aminopyridin-3-yl)-5-(1H-pyrazol-1-yl)-3H-imidazo[4,5-b]pyridin-3-yl)-2,3-dihydro-1H-inden-1-yl)-3-formylbenzamide]: the IC50 in test [1] is 100 to 2000 nM; in test [2] it was below 10 nM; in test [3] it was 10 to 100 nM; in test [4], 10 to 100 nM.

For `Nc1ncccc1-c1nc2ccc(-n3cccn3)nc2n1-c1ccc2c(c1)CC[C@@H]2NC(=O)c1csc(C=O)n1` [Example 143, (S)—N-(5-(2-(2-aminopyridin-3-yl)-5-(1H-pyrazol-1-yl)-3H-imidazo[4,5-b]pyridin-3-yl)-2,3-dihydro-1H-inden-1-yl)-2-formylthiazole-4-carboxamide], the IC50 in test [1], in test [2], in test [3] and in test [4] was 100 to 2000 nM each time.

For `Nc1ncccc1-c1nc2ccc(-c3nccs3)nc2n1-c1ccc2c(c1)CC[C@@H]2NC(=O)c1cc(C=O)c(O)cc1F` [Example 144, N-[(1S)-5-[2-(2-aminopyridin-3-yl)-5-(1,3-thiazol-2-yl)imidazo[4,5-b]pyridin-3-yl]-2,3-dihydro-1H-inden-1-yl]-2-fluoro-5-formyl-4-hydroxybenzamide], the IC50 in test [1], in test [2], in test [3] and in test [4] was 10 to 100 nM throughout.

Regarding `C#Cc1cc(O)c(C=O)cc1C(=O)N[C@H]1CCc2cc(-n3c(-c4cccnc4N)nc4ccc(-n5cccn5)nc43)ccc21` [Example 145, N-[(1S)-5-[2-(2-aminopyridin-3-yl)-5-(pyrazol-1-yl)imidazo[4,5-b]pyridin-3-yl]-2,3-dihydro-1H-inden-1-yl]-2-ethynyl-5-formyl-4-hydroxybenzamide], the IC50 lay within 100 to 2000 nM in test [1], 10 to 100 nM in test [2], 100 to 2000 nM in test [3] and 10 to 100 nM in test [4].

`Nc1ncccc1-c1nc2ccc(-c3ncc(C(F)F)s3)nc2n1-c1ccc2c(c1)CC[C@@H]2NC(=O)c1ccc(O)c(C=O)c1` [Example 146, (S)—N-(5-(2-(2-aminopyridin-3-yl)-5-(5-(difluoromethyl)thiazol-2-yl)-3H-imidazo[4,5-b]pyridin-3-yl)-2,3-dihydro-1H-inden-1-yl)-3-formyl-4-hydroxybenzamide]: the IC50 was in the range of 100 to 2000 nM in test [1], 100 to 2000 nM in test [2], 100 to 2000 nM in test [3] and 10 to 100 nM in test [4].

As for `Nc1ncccc1-c1nc2ccc(-c3nc(C(F)F)cs3)nc2n1-c1ccc2c(c1)CC[C@@H]2NC(=O)c1ccc(O)c(C=O)c1` [Example 147, N-[(1S)-5-[2-(2-aminopyridin-3-yl)-5-[4-(difluoromethyl)-1,3-thiazol-2-yl]imidazo[4,5-b]pyridin-3-yl]-2,3-dihydro-1H-inden-1-yl]-3-formyl-4-hydroxybenzamide], the IC50 in test [1] lay within 10 to 100 nM; in test [2], 10 to 100 nM; in test [3] it was 100 to 2000 nM; in test [4] it was 10 to 100 nM.

On to `Nc1ncccc1-c1nc2ccc(-n3cccn3)nc2n1-c1ccc2c(c1)CC[C@@H]2Nc1n[nH]c2c(C=O)cccc12` [Example 148, 3-{[(1S)-5-[2-(2-aminopyridin-3-yl)-5-(pyrazol-1-yl)imidazo[4,5-b]pyridin-3-yl]-2,3-dihydro-1H-inden-1-yl]amino}-1H-indazole-7-carbaldehyde], for which the IC50 in test [1] was 100 to 2000 nM; in test [2] it was 100 to 2000 nM; in test [3], 100 to 2000 nM; in test [4] it was 10 to 100 nM.

Turning to `Cc1cc(O)c(C=O)cc1C(=O)N[C@H]1CCc2cc(-n3c(-c4cccnc4N)nc4ccc(-n5cccn5)nc43)ccc21` [Example 149, N-[(1S)-5-[2-(2-aminopyridin-3-yl)-5-(pyrazol-1-yl)imidazo[4,5-b]pyridin-3-yl]-2,3-dihydro-1H-inden-1-yl]-5-formyl-4-hydroxy-2-methylbenzamide], the IC50 in test [1] is 100 to 2000 nM; in test [2], 100 to 2000 nM; in test [3], 100 to 2000 nM; in test [4] it was 10 to 100 nM.

With `Nc1ncccc1-c1nc2ccc(-c3ncco3)nc2n1-c1ccc2c(c1)CC[C@@H]2NC(=O)c1cc(C=O)c(O)c(F)c1F` [Example 150, N-[(1S)-5-[2-(2-aminopyridin-3-yl)-5-(1,3-oxazol-2-yl)imidazo[4,5-b]pyridin-3-yl]-2,3-dihydro-1H-inden-1-yl]-2,3-difluoro-5-formyl-4-hydroxybenzamide], the IC50 in test [1] is 10 to 100 nM; in test [2], 10 to 100 nM; in test [3], 100 to 2000 nM; in test [4] it was 10 to 100 nM.

Take `Nc1ncccc1-c1nc2ccc(-c3ncco3)nc2n1-c1ccc2c(c1)CC[C@@H]2NC(=O)c1cc(C=O)c(O)cc1F` [Example 151, N-[(1S)-5-[2-(2-aminopyridin-3-yl)-5-(1,3-oxazol-2-yl)imidazo[4,5-b]pyridin-3-yl]-2,3-dihydro-1H-inden-1-yl]-2-fluoro-5-formyl-4-hydroxybenzamide]: the IC50 in test [1] was 10 to 100 nM; in test [2] it was 10 to 100 nM; in test [3], 100 to 2000 nM; in test [4], below 10 nM.

`COCc1cnn(-c2ccc3nc(-c4cccnc4N)n(-c4ccc5c(c4)CC[C@@H]5NC(=O)c4cc(C=O)c(O)cc4F)c3n2)c1` [Example 152, (S)—N-(5-(2-(2-aminopyridin-3-yl)-5-(4-(methoxymethyl)-1H-pyrazol-1-yl)-3H-imidazo[4,5-b]pyridin-3-yl)-2,3-dihydro-1H-inden-1-yl)-2-fluoro-5-formyl-4-hydroxybenzamide]: the IC50 was 100 to 2000 nM in test [1], 100 to 2000 nM in test [2], 100 to 2000 nM in test [3] and 10 to 100 nM in test [4].
